Laboratory results from US12390435B2, “Electrophiles and electrophile pro-drugs as RAD51 inhibitors” (University of Pittsburgh—Of the Commonwealth System of …, priority 2018, dated 2025).
Entries after “also recorded” stand apart in the source; their conditions may differ.

Columns and labels:
[1] = tested on: NF-κB transcriptional activity; assay: NF-κB luciferase reporter; format: cell-based; conditions: MDA-MB-231 and MDA-MB-468 cells, 5 μM 2 hr then TNFα 20 ng/mL 4 hr
Experimental: Luciferase-chemiluminescence-based analysis of NF-κB transcriptional activity was performed. MDA-MB-231 and MDA-MB-468 cells (˜70% confluence) in 12-well plates were transiently transfected with a NF-κB-luciferase reporter plasmid (Stratagene, La Jolla, CA) with Lipofectamine 3000. […] Each transfection was performed in triplicate. Luciferase activity was measured using the Dual-luciferase assay kit (Promega). Relative light units (RLU) were measured using a 96-well plate luminometer, according to the manufacturer's instructions (Victor II, PerkinElmer Life Sciences). Protein concentration was determined using the BCA Assay (Thermo Fisher Scientific). Data represents the ratio of treated samples to controls in the context of mean RLU/protein content, +/−SD. Three individual experiments were done, and statistical significance was determined by Kruskal-Wallis test followed by Dunn's post-test with Bonferroni corrections for multiple comparisons.

MDA-MB-231 cells [2] = assay: CellTiter-Glo relative growth (luminescent ATP); format: cell-based; conditions: for EC50 for growth inhibition, compared between compounds: ATP Celltiter Glo proliferation assay, n=3
Experimental: HEK 293T, MDA-MB-231, MDA-MB-468, Hs578T and BT-549 cells (American Type Culture Collection) were cultured at 37° C. with 5% CO2 in Dulbecco's modified Eagle's medium containing (DMEM) (Gibco) supplemented with 5% FBS (HyClone), 100 units/ml penicillin, […] streptomycin (Gibco), non-essential amino acids (Gibco) and 2 mM 1-glutamine (Gibco). Doxorubicin (Selleckchem), cisplatin (Sigma) or olaparib (Selleckchem) were dissolved in DMSO or DMF (cisplatin). […] Pure NO2-OA was diluted in DMSO and added to cells after solvation in assay media. Relative cell numbers were compared by measuring the luminescent signal generated by ATP using the CellTiter-Glo (Promega) assay. Cells were plated in a 96-well plate at 5,000 (MDA-MB-231) or 6,600 (BT549 or Hs578T) cells per well.
Data represent the mean±SEM from 3 independent experiments unless otherwise noted. A p value<0.05 was considered statistically significant. Non-linear curves were generated in GraphPad Prism 7.0 (GraphPad Software, La Jolla, CA, USA) for statistical analysis. EC50 values and standard error were calculated from three independent experiments utilizing a non-linear dose response variable slope model. Significance was tested by one-way ANOVA for multiple groups with Tukey posttest or by t-test when groups were less than three. RAD51 foci number was analyzed with ImageJ. Nuclear boundaries were individually identified in more than 50 cells per treatment group in three independent experiments.
The growth of BT-549 cells was not affected. […] MDA-MB-231 cells were plated in a 96 well plate and treated with talazoparib (0.01-75 μM) plus OA-NO2 or NDA-NO2 (0.2-12 μM) daily for 3 days. Growth inhibition (relative cell numbers) of MDA-MB-231 cells was determined by luminescent detection of ATP (CellTiter-Glo) (FIG. 1K).

IKKβ = assay: TNFα-induced IKKβ phosphorylation, IκBα phosphorylation and degradation; format: cell-based
Experimental: All studies used two TNBC cell lines, MDA-MB-231 and MDA-MB-468. […] For IκBα degradation, cells were treated as described above and stimulated with 20 ng/mL TNFα for 10 min.
(§1) Western blotting was performed. 20-60 μg of total lysates per lane were loaded on 7%, 10%, or 12% SDS-PAGE and transferred onto nitrocellulose or polyvinylidene difluoride membranes (Bio-Rad). The membranes were probed with primary antibodies against caspase-3, multi-drug resistance protein-1 (MRP1), poly [ADP ribose] polymerase-1 (PARP-1), ubiquitin, RelA; cyclin D1, p21, caspase-9, MRP4, IKKβ, pIKKβ, IκBα, or pIκBα (Cell Signaling); caspase-8 (R&D Systems). Samples were normalized to β-actin (Sigma-Aldrich) or GAPDH (Trevigen).

[3] = tested on: homologous recombination (DR-GFP, U2OS cells); assay: DR-GFP HR reporter assay in U2OS cells; format: cell-based; conditions: FIG. 16B
Experimental: Measurements of NHEJ, HR, Alt-EJ and SSA assays were performed as previously described. HR activity was measured by counting GFP-positive cells by flow cytometry at the MWRI flow cytometry core using a BD LSRII (BD Biosciences). RAD51 overexpressing cells were generated by stable transfection of pLVX RAD51 IRES Neo and selection with geneticin (Invitrogen).
U2OS cells were prepared as above, but 5 h following compound treatment, cells were transferred into the Incucyte Zoom (Essen) live-cell imaging automated fluorescence microscope at 37° C. with 5% CO2. Cell confluence and green object count per mm2 were determined using Incucyte Zoom software. Green object count per field was normalized to cell confluency to correct for NO2—OA-induced effects on cell proliferation.
NO2-OA-dependent effects on HR DNA repair were further investigated by utilizing a DRGFP reporter assay. This analysis quantifies intracellular recombination of an integrated cDNA cassette of two tandem non-fluorescent GFP constructs following introduction of an I-SceI cleavage to the system by measuring the fluorescent GFP protein that is produced following successful recombination. […] A novel strategy was used to measure the kinetics of changes in HR in live cells by using automated fluorescence microscopy to track the emergence of GFP positive cells over time in monolayers, as opposed to making static measurements of detached cells using flow cytometry. […] This was indicated by an absence of changes in the number of GFP positive cells following I-SceI cleavage after 48 h by flow cytometric analysis or over 68 h by live-cell fluorescence microscopy (FIGS. 2C, 2D).

[4] = tested on: human high grade serous ovarian cancer cells; assay: Cell growth/viability by luminescent ATP with PARP inhibitors; format: cell-based; conditions: with Olaparib or Talazoparib
Experimental: Cell growth/viability is determined from luminescent detection of cell ATP concentration.

MDA-MB-468 cells = assay: Matrigel cell invasion assay; format: cell-based; conditions: NO2-OA/NO2-SA 5 μM, JSH-23 10 μM, TNFα 20 ng/mL, 24 hr
Experimental: Cells were then suspended in migration media and placed in the top well of invasion chambers (EMD Millipore). Chemoattractant (5% FBS) was placed in the lower chamber for 24 hr at 37° C. to attract invasive cells. Cells were then harvested and invasion rates were determined according to manufacturer's protocol. Three individual experiments were done, and statistical comparison among treatments was determined by one-way analysis of variance followed by Tukey post-test.

[5] = tested on: RelA in MDA-MB-231 and MDA-MB-468 cells; assay: RelA protein level and polyubiquitination; format: cell-based; conditions: 5 μM, 24 hr
Experimental: Lysates were clarified by centrifugation at 14,000×g for 10 min. Protein lysates (1 mg) were incubated with anti-RelA antibody and Protein G/A conjugated agarose beads (EMD Millipore, Bedford, MA) at 4° C., overnight. Immunoprecipitation fraction were obtained by centrifugation at 14,000×g for 1 min at RT and washed with lysis buffer three times. The immunoprecipitated RelA was resolved by 8% SDSPAGE gel, and transferred to nitrocellulose membrane (Bio-Rad) for immunoblotting probed with an anti-ubiquitin antibody (Santa Cruz Biotechnology). The blot was then stripped and probed with an anti-RelA antibody to assess amounts of RelA protein pull-down.
as §1

[6] = tested on: MDA-MB-231 and MDA-MB-468 cells; assay: FACS cell cycle analysis; format: cell-based; conditions: MCF-10A, MDA-MB-231 and MDA-MB-468 cells, 24 hr
Experimental: Adherent and nonadherent cells were collected, centrifuged at 2000×rpm for 10 min, washed with ice-cold phosphate-buffered saline, fixed with cold 70% ethanol at 4° C. for 30 mins, and stained with 50 μg/mL propidium iodide (Sigma-Aldrich). FACS analysis was performed at the University of Pittsburgh Department of Immunology Unified Flow Core Facility. Three individual experiments were done, and statistical comparisons among phases (G0/G1, S, and G2/M) were determined by one-way analysis of variance followed by Tukey post-test.

MDA-MB-231 cells [7] = assay: Cell growth assay (FluoReporter dsDNA); format: cell-based; conditions: TNBC cell lines MDA-MB-231 and MDA-MB-468, 48 hr
Experimental: Cells were plated at a cell density of 5000 cells per well in 96-well plates. […] Cells were counted using the FluoReporter dsDNA quantitation kit (Molecular Probes) according to the manufacturer's instructions. Fluorescence was measured using a SpectraMax M2 plate reader (Molecular Devices). […] Three individual experiments were done (n=5/each), and statistical comparison between two cell lines across doses was determined by two-way analysis of variance followed by Tukey post-test.

MDA-MB 231 TNBC cells = assay: Metabolism in MDA-MB-231 cells by HPLC-MSMS; format: in vitro ADME; conditions: for omega hydroxylation and carboxylation: 10 uM; for omega hydroxylation and carboxylation / cysteine adduct formation: cell media and cell homogenate
Experimental: FIG. 18. […] Growth inhibition was assessed using the ATP Celltiter Glo proliferation assay and compounds were used at different concentration to determine their EC50. CP-1 had the lowest EC50 followed by 7-NDA and 8-NDA. […] The different metabolic pathways of 7-NDA and 8-NDA have been characterized in MDA-MB-231 TNBC cells. MDA-MB 231 TNBC cells incorporate and metabolize 7-NDA and 8-NDA through beta oxidation (FIG. 19). Inactivation of the active 7-NDA and 8-NDA nitroalkene group is achieved through reduction to a nitroalkane (FIG. 20).
FIG. 19. […] Dinor 7-NDA corresponds to one beta-oxidation cycle while tetranor corresponds to two beta oxidation cycles. […] Formation of both Dinor and Tetranor 8-NDA are shown. Chromatograms correspond to the detection by HPLC-MSMS of the different compounds in negative ion mode using MRMs on a triple quadrupole mass spectrometer.
FIG. 20. […] Chromatograms correspond to the detection by HPLC-MSMS of the different compounds in negative ion mode using MRMs on a triple quadrupole mass spectrometer.
FIG. 21. […] Chromatograms correspond to the detection by HPLC-MSMS of the different using specific MRM transitions on a triple quadrupole mass spectrometer.
FIG. 22. […] Dicarboxylic acids of both 7-NDA and 8-NDA have been detected in cell media and cell homogenate from cell treated with 10 uM 7-NDA or 8-NDA. Chromatograms correspond to the detection by HPLC-MSMS of the different using specific MRM transitions on a triple quadrupole mass spectrometer.

CCCCCCCCC=CCCCCCCCC(=O)O [OA, octadec-9-enoic acid, reference compound]
NF-κB-dependent transcription of luciferase [1]: no effect | EC50 for growth inhibition, compared between compounds (MDA-MB-231 cells [2]): did not induce any growth inhibition

Cc1ccc(S(=O)(=O)/C=C/C#N)cc1 [BAY11-7082, 3[(4-methylphenyl)sulfonyl]-(2E)-propenenitrile, reference compound]
TNFα-induced IKKβ phosphorylation (IKKβ; NO2-OA 5 μM or BAY11-7082 10 μM 2 hr, TNFα 20 ng/mL 5 min): diminished | degradation of IκBα following TNFα stimulation (IKKβ; TNFα 20 ng/mL, 10 min): inhibited the degradation of IκBβ | IκBα phosphorylation (IKKβ; with proteasome inhibitor MG-132 10 μM): decreased IκBβ phosphorylation

methyl-ethyl-4-nitro-oct-4-enedioate [CP-1]
inhibition of homologous recombination [3]: inhibition of homologous recombination | EC50 for growth inhibition, compared between compounds (MDA-MB-231 cells [2]): lower EC50 than OA-NO2; also recorded: lowest EC50 | concentration of PARP inhibitor needed for 50% tumor cell killing [4]: lowers the concentration of the PARP inhibitors

Cc1ccc(NCCCc2ccccc2)c(N)c1 [JSH-23, 4-Methyl-N1-(3-phenyl-propyl)-benzene-1,2-diamine]
TNFα-induced invasion (MDA-MB-468 cells): inhibition of MDA-MB-468 cell invasion

CCCCCCCCC(CCCCCCCCC(=O)O)[N+](=O)[O-] (stereo not drawn) [NO2—SA, 10-nitro-octadecanoic acid, reference compound]
TNFα-induced invasion (MDA-MB-468 cells): marginal effects | RelA protein abundance [5]: no effect | NF-κB-dependent transcription of luciferase [1]: no effect | cell cycle populations and regulatory proteins [6]: did not affect cell cycle populations | TNBC cell growth (MDA-MB-231 cells [7]): did not affect TNBC cell growth

CCCCCCCCCCC/C(=C\CCCCCC(=O)O)[N+](=O)[O-] [8-NDA, 8-NO2-nonadec-7-enoic acid]
formation of active nitroalkene beta-oxidation metabolites (dinor, tetranor) (MDA-MB 231 TNBC cells): result in the active (structures having the reactive nitroalkene moiety) beta-oxidation products | omega hydroxylation and carboxylation (MDA-MB 231 TNBC cells): omega hydroxylation and carboxylation | cysteine adduct formation (MDA-MB 231 TNBC cells): form cysteine adducts that are detected in cell media and cell homogenate | EC50 for growth inhibition, compared between compounds (MDA-MB-231 cells [2]): more sensitive to 7-NDA and 8-NDA when compared to OA-NO2

CCCCCCCCCCC/C=C(\CCCCCC(=O)O)[N+](=O)[O-] [7-NDA, 7-NO2-nonadec-7-enoic acid]
formation of active nitroalkene beta-oxidation metabolites (dinor, tetranor) (MDA-MB 231 TNBC cells): does not result in the formation of active, nitroalkene containing metabolites | omega hydroxylation and carboxylation (MDA-MB 231 TNBC cells): omega hydroxylation and carboxylation | cysteine adduct formation (MDA-MB 231 TNBC cells): form cysteine adducts that are detected in cell media and cell homogenate | EC50 for growth inhibition, compared between compounds (MDA-MB-231 cells [2]): more sensitive to 7-NDA and 8-NDA when compared to OA-NO2 | IC50 compared with NO2-OA (MDA-MB-231 cells [2]; FIG. 12): lower IC50 compared NO2-OA | Combination index (CI), Chou-Talalay (MDA-MB-231 cells [2]; with talazoparib (0.01-75 μM), 0.2-12 μM, daily 3 days, CI<1 is synergistic): better combination indices; also recorded: better CI values compared to OA-NO2
